{"source": "patent US11952364B2", "about": "“TRK inhibitors useful as anticancer drugs” (TYLIGAND BIOSCIENCE (SHANGHAI) LIMITED, priority 2018, dated 2024)", "data": [{"tested_on": "Ba/F3 LMNA-NTRK1-G595R cells", "experiment": "Proliferation of Ba/F3 LMNA-NTRK1-G595R cells (CellTiter-Glo)", "format": "cell-based", "conditions": "Mus musculus, BaF3; Table 5; 72 hours", "source_text": "Ba/F3 LMNA-NTRK1-G595R is a stable transgenic cell line constructed by KYinno Biotechnology Co., Ltd. on mouse primary B cell Ba/F3 wherein NTRK1 is highly expressed with a mutation of G at position 595 to R, and fused with LMNA to form LMNA-NTRK1. • [Test method]: Promega's CellTiter-Glo® Luminescent Cell Viability Assay kit was used to evaluate the inhibitory activity of the compounds on the proliferation of Ba/F3 LMNA-NTRK1-G595R cells. • [Instrument]: Spectramax M3 multifunctional microplate reader from Molecular Devices. • [Test materials]: Ba/F3 LMNA-NTRK1-G595R cell line (constructed by KYinno Biotechnology Co., Ltd. (Beijing)), 96-well transparent flat-bottomed black-walled cell culture plate (Corning, cat #3603), RPMI-1640 media (GE, cat #SH30027.01), fetal bovine serum FBS (Thermo Fisher, cat #10099-141), CellTiter-Glo® Luminescent Cell Viability Assay kit (Promega, cat #G7572), PBS (Solarbio, cat #P1020), DMSO (Sigma, cat #D2650). • [Experimental procedure]: When resuscitating Ba/F3 LMNA-NTRK1-G595R cells, the freezing tube was quickly shaken in a 37° C. water bath to melt within 1 minute. The thawed cell suspension was mixed uniformly with RPMI1640 medium containing 10% FBS, centrifuged at 1000 rpm for 5 minutes, and the supernatant discarded. 5 mL of complete medium (RPMI1640 medium with 10% FBS) was taken to resuspend the cell pellets, charged into a cell culture flask with a bottom area of 25 cm^2, and incubated in a cell incubator at 37° C., 95% humidity and 5% CO2. Cells were allowed to passage when the number of cells reached about 10^6 cells/mL. For cell passage, the old cell suspension was directly pipetted evenly, 1/5 of the cell suspension was kept, 4 mL of new complete medium was added, after pipetting evenly, the cell flask was placed in the cell incubator for further culturing. Cell plating was performed when the number of cells reached about 10^6 cells/mL again. For cell plating, 1/5 of the cell suspension was kept for further culturing as in the cell passage method, and the remaining 4/5 of the cell suspension was placed in a 15 mL centrifuge tube, detected for cell viability by Trypan blue exclusion method to ensure that cell viability was above 90%. A cell suspension with a density of 5.56×10^4 viable cells/mL was prepared with complete medium, and 90 μL of such cell suspension was added to a 96-well cell culture plate to obtain the cell density of 5000 viable cells/mL in the cell culture plate. A control group containing no cells, no compound and only complete medium (i.e. culture medium control) and a control group containing no compound but containing cells (i.e. cell control) were set. The cell plate was placed in a cell incubator overnight. The 10 mM compound stock solution in DMSO was first serially diluted with DMSO at a dilution factor of 3.16 times, to obtain 9 concentrations, and the 10th concentration was set as DMSO control without compound. Then, PBS was used to dilute the DMSO solutions of compounds of different concentrations, at a dilution factor of 100 times, so that the DMSO concentration in the compound solution of each concentration was 1%. Finally, 10 μL of each of the above solutions was added to the corresponding cell culture plate, so that the initial compound concentration was 10 μM, with the remaining concentrations being successively diluted at a dilution factor of 3.16 times, and the DMSO content in the cell culture plate was 0.1%. The cell plate was placed in a cell incubator and cultured for 72 hours. For endpoint detection, the CellTiter-Glo reagent was melted, and the cell plate was moved to room temperature to equilibrate for 30 minutes, added with 100 μL of CellTiter-Glo for each well, and shaken on an orbital shaker for 5 minutes to fully lyse the cells. The plate was kept at room temperature for 20 minutes to stabilize the luminescence signal, and the luminescence value of each well was scanned with a multi-functional microplate reader at full wavelength. • [Test samples] […]", "units": {"IC50": "nM"}, "values": [{"smiles": "CCc1ccc(C(=O)Nc2ccc(Oc3cc4cnn(C)c4cc3-c3cn[nH]c3)c(F)c2)c(=O)n1-c1ccc(F)cc1", "note": "[Example 5, N-(3-fluoro-4-(1-methyl-6-(1H-pyrazol-4-yl)-1H-indazol-5-yloxy)phenyl)-1-(4-fluorophenyl)-6-ethyl-2-oxo-1,2-dihydropyridine-3-carboxamide]", "IC50": 799}, {"smiles": "Cn1ncc2cc(Oc3ccc(NC(=O)c4ccc(C(F)(F)F)n(-c5ccc(F)cc5)c4=O)cc3F)c(-c3cn[nH]c3)cc21", "note": "[Example 1, N-(3-fluoro-4-(1-methyl-6-(1H-pyrazol-4-yl)-1H-indazol-5-yloxy)phenyl)-1-(4-fluorophenyl)-6-trifluoromethyl-2-oxo-1,2-dihydmpyridine-3-carboxamide monomethanesulfonate]", "IC50": 1440}, {"smiles": "CC(C)c1ccc(C(=O)Nc2ccc(Oc3cc4cnn(C)c4cc3-c3cn[nH]c3)c(F)c2)c(=O)n1-c1ccc(F)cc1", "note": "[Example 6, N-(3-fluoro-4-(1-methyl-6-(1H-pyrazol-4-yl)-1H-indazol-5-yloxy)phenyl)-1-(4-fluorophenyl)-6-isopropyl-2-oxo-1,2-dihydropyridine-3-carboxamide]", "IC50": 747}, {"smiles": "O=C(Nc1cnn2ccc(N3CCC[C@@H]3c3cc(F)ccc3F)nc12)N1CC[C@H](O)C1", "note": "[LOXO-101, Larotrectinib, reference compound]", "IC50": 3660}, {"smiles": "Cc1ccc(C(=O)Nc2ccc(Oc3cc4cnn(C(C)C)c4cc3-c3cn[nH]c3)c(F)c2)c(=O)n1-c1ccc(F)cc1", "note": "[Example 4, N-(3-fluoro-4-(1-isopropyl-6-(1H-pyrazol-4-yl)-1H-indazol-5-yloxy)phenyl)-1-(4-fluorophenyl)-6-methyl-2-oxo-1,2-dihydmpyridine-3-carboxamide]", "IC50": 4650}, {"smiles": "Cn1ncc2cc(Oc3ccc(NC(=O)c4ccc(C5CC5)n(-c5ccc(F)cc5)c4=O)cc3F)c(-c3cn[nH]c3)cc21", "note": "[Example 2, N-(3-fluoro-4-(1-methyl-6-(1H-pyrazol-4-yl)-1H-indazol-5-yloxy)phenyl)-1-(4-fluorophenyl)-6-cyclopropyl-2-oxo-1,2-dihydmpyridine-3-carboxamide]", "IC50": 752}, {"smiles": "Cc1ccc(C(=O)Nc2ccc(Oc3cc4cnn(C)c4cc3-c3cn[nH]c3)c(F)c2)c(=O)n1-c1ccc(F)cc1", "note": "[Merestinib, reference compound]", "IC50": 1010}, {"smiles": "CCn1ncc2cc(Oc3ccc(NC(=O)c4ccc(C)n(-c5ccc(F)cc5)c4=O)cc3F)c(-c3cn[nH]c3)cc21", "note": "[Example 3, N-(3-fluoro-4-(1-ethyl-6-(1H-pyrazol-4-yl)-1H-indazol-5-yloxy)phenyl)-1-(4-fluorophenyl)-6-methyl-2-oxo-1,2-dihydmpyridine-3-carboxamide]", "IC50": 3150}]}]}
